The target in assay [1] is cAMP-dependent protein kinase catalytic subunit PRKX (Homo sapiens) (UniProt P51817). As to the kind of experiment: Inhibition of recombinant full length human GST-tagged PRKX expressed in baculovirus expression system at 0.1 uM using serine/threonine-1 peptide as substrate incubated for 60 mins by Z'-LYTE assay relative to control.
Assay [2] concerns the target Death-associated protein kinase 3 (Homo sapiens) (UniProt O43293). The experiment in a line: Inhibition of recombinant full length human GST-tagged ZIPK expressed in baculovirus expression system at 0.1 uM using serine/threonine-13 peptide as substrate incubated for 60 mins by Z'-LYTE assay relative to control.
Assay [3] concerns the target Tyrosine-protein kinase receptor UFO (Homo sapiens) (UniProt P30530). The experiment in a line: Inhibition of recombinant full length human GST-tagged AXL expressed in insect expression system at 0.1 uM using tyrosine-6 peptide as substrate incubated for 60 mins by Z'-LYTE assay relative to control.
In assay [4] the target is Activated CDC42 kinase 1 (Homo sapiens) (UniProt Q07912). The experiment in a line: Inhibition of tracer 236 binding to recombinant human GST-tagged TNK2 catalytic domain (110 to 476 residues) expressed in baculovirus expression system at 0.1 uM measured after 60 mins by Lanthascreen assay.
Assay [5] has as its target Dual specificity tyrosine-phosphorylation-regulated kinase 4 (Homo sapiens) (UniProt Q9NR20). As to the kind of experiment: Inhibition of recombinant full length human GST-tagged DYRK4 expressed in baculovirus expression system at 0.1 uM using serine/threonine-9 peptide as substrate incubated for 60 mins by Z'-LYTE assay relative to control.
Assay [6] has as its target Dual specificity mitogen-activated protein kinase kinase 6 (Homo sapiens) (UniProt P52564). The experiment in a line: Inhibition of recombinant full length human His-tagged MKK6 expressed in baculovirus expression system at 0.1 uM using serine/threonine-3 peptide as substrate incubated for 60 mins by Z'-LYTE assay relative to control.
Assay [7] has as its target Epithelial discoidin domain-containing receptor 1 (Homo sapiens) (UniProt Q08345). As to the kind of experiment: Inhibition of tracer 178 binding to recombinant human GST-tagged DDR1 catalytic domain (440 to 876 residues) expressed in baculovirus expression system at 0.1 uM measured after 60 mins by Lanthascreen assay relative to control. For orientation: In TR-FRET formats the signal depends on donor and acceptor labels being close together.

Assay [8] addresses Macrophage-stimulating protein receptor (Homo sapiens) (UniProt Q04912). As to the kind of experiment: Inhibition of recombinant human GST-tagged RON catalytic domain (983 to 1400 residues) expressed in baculovirus expression system at 0.1 uM using tyrosine-6 peptide as substrate incubated for 60 mins by Z'-LYTE assay relative to control.
For assay [9], the target named is CDK9/cyclin T1 (Homo sapiens) (UniProt O60563+P50750). The experiment in a line: Inhibition of recombinant full length human His-tagged CDK9/CyclinT1 expressed in baculovirus expression system at 0.1 uM using CDK7/9tide peptide as substrate incubated for 60 mins by Adapta assay relative to control.
Assay [10] addresses Serine/threonine-protein kinase Sgk3 (Homo sapiens) (UniProt Q96BR1). The experiment in a line: Inhibition of recombinant human GST-tagged SGK3 catalytic domain (87 to 496 residues) expressed in baculovirus expression system at 0.1 uM using serine/threonine-6 peptide as substrate incubated for 60 mins by Z'-LYTE assay relative to control.
The target of assay [11] is Myosin light chain kinase (Homo sapiens) (UniProt Q32MK0). The experiment in a line: Inhibition of tracer 236 binding to recombinant full length human GST-tagged MYLK3 expressed in baculovirus expression system at 0.1 uM measured after 60 mins by Lanthascreen assay relative to control.
Assay [12] has as its target Calcium/calmodulin-dependent protein kinase type 1D (Homo sapiens) (UniProt Q8IU85). The experiment in a line: Inhibition of recombinant full length human His-tagged CAMK1delta expressed in baculovirus expression system at 0.1 uM using serine/threonine-25 peptide as substrate incubated for 60 mins by Z'-LYTE assay relative to control.
Assay [13] concerns the target PAS domain-containing serine/threonine-protein kinase (Homo sapiens) (UniProt Q96RG2). The experiment in a line: Inhibition of recombinant human GST-tagged PASK catalytic domain (879 to 1323 residues) expressed in baculovirus expression system at 0.1 uM using serine/threonine-7 peptide as substrate incubated for 60 mins by Z'-LYTE assay relative to control.
Assay [14] deals with Beta-adrenergic receptor kinase 1 (Homo sapiens) (UniProt P25098). As to the kind of experiment: Inhibition of recombinant full length human His-tagged GRK2 expressed in baculovirus expression system at 0.1 uM using serine/threonine-16 peptide as substrate incubated for 60 mins by Z'-LYTE assay relative to control.
Assay [15] deals with Serine/threonine-protein kinase D1 (Homo sapiens) (UniProt Q15139). The experiment in a line: Inhibition of recombinant full length human GST-tagged PKD1 expressed in baculovirus expression system at 0.1 uM using serine/threonine-17 peptide as substrate incubated for 60 mins by Z'-LYTE assay relative to control.
Assay [16] concerns the target RAC-beta serine/threonine-protein kinase (Homo sapiens) (UniProt P31751). The experiment in a line: Inhibition of recombinant full length human His-tagged AKT2 expressed in baculovirus expression system at 0.1 uM using serine/threonine-06 peptide as substrate incubated for 60 mins by Z'-LYTE assay relative to control.
In assay [17] the target is Serine/threonine-protein kinase NLK (Homo sapiens) (UniProt Q9UBE8). The experiment in a line: Inhibition of tracer 178 binding to recombinant full length human GST-tagged NLK expressed by baculovirus expression system at 0.1 uM measured after 60 mins by Lanthascreen assay relative to control.
The target in assay [18] is Serine/threonine-protein kinase TBK1 (Homo sapiens) (UniProt Q9UHD2). As to the kind of experiment: Inhibition of recombinant full length human GST-tagged TBK1 expressed in insect expression system at 0.1 uM using serine/threonine-5 peptide as substrate incubated for 60 mins by Z'-LYTE assay relative to control.
Assay [19] addresses Serine/threonine-protein kinase Nek6 (Homo sapiens) (UniProt Q9HC98). The experiment in a line: Inhibition of recombinant full length human GST-tagged NEK6 expressed in insect expression system at 0.1 uM using serine/threonine-22 peptide as substrate incubated for 60 mins by Z'-LYTE assay relative to control.
For assay [20], the target named is G protein-coupled receptor kinase 6 (Homo sapiens) (UniProt P43250). The experiment in a line: Inhibition of recombinant full length human GST-tagged GRK6 expressed in baculovirus expression system at 0.1 uM using serine/threonine-16 peptide as substrate incubated for 60 mins by Z'-LYTE assay relative to control.
In assay [21] the target is G protein-coupled receptor kinase 3 (Homo sapiens) (UniProt P35626). The experiment in a line: Inhibition of recombinant full length human GST-tagged GRK3 expressed in baculovirus expression system at 0.1 uM using serine/threonine-16 peptide as substrate incubated for 60 mins by Z'-LYTE assay relative to control.
Assay [22] has as its target Tyrosine-protein kinase JAK2 (Homo sapiens) (UniProt O60674). The experiment in a line: Inhibition of recombinant human GST-tagged JAK2 catalytic domain (809 to 1153+9 residues) expressed in baculovirus expression system at 0.1 uM using tyrosine-6 peptide as substrate incubated for 60 mins by Z'-LYTE assay relative to control.
Assay [23] addresses Serine/threonine-protein kinase PAK 1 (Homo sapiens) (UniProt Q13153). As to the kind of experiment: Inhibition of recombinant full length human GST-tagged PAK1 expressed in baculovirus expression system at 0.1 uM using serine/threonine-19 peptide as substrate incubated for 60 mins by Z'-LYTE assay relative to control.

By inhibition is commonly meant the share of the control response that was lost under treatment.

Sequence of Serine/threonine-protein kinase Sgk3 (Homo sapiens) (Q96BR1 whole entry, the tested form may be a part): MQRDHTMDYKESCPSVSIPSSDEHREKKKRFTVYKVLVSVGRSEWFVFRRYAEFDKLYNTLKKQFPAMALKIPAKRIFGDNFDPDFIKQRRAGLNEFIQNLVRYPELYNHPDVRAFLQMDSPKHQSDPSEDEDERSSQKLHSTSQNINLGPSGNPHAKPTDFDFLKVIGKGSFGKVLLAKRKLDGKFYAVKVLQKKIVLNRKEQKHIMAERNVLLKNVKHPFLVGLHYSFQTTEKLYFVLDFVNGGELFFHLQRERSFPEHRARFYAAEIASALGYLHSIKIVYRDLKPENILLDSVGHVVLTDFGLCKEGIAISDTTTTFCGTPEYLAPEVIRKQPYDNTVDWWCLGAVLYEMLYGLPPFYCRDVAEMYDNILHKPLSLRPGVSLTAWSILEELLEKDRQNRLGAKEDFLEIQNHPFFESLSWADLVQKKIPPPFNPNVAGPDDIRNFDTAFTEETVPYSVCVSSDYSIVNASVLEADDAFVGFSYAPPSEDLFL
Sequence of Epithelial discoidin domain-containing receptor 1 (Homo sapiens) (Q08345 whole entry, the tested form may be a part): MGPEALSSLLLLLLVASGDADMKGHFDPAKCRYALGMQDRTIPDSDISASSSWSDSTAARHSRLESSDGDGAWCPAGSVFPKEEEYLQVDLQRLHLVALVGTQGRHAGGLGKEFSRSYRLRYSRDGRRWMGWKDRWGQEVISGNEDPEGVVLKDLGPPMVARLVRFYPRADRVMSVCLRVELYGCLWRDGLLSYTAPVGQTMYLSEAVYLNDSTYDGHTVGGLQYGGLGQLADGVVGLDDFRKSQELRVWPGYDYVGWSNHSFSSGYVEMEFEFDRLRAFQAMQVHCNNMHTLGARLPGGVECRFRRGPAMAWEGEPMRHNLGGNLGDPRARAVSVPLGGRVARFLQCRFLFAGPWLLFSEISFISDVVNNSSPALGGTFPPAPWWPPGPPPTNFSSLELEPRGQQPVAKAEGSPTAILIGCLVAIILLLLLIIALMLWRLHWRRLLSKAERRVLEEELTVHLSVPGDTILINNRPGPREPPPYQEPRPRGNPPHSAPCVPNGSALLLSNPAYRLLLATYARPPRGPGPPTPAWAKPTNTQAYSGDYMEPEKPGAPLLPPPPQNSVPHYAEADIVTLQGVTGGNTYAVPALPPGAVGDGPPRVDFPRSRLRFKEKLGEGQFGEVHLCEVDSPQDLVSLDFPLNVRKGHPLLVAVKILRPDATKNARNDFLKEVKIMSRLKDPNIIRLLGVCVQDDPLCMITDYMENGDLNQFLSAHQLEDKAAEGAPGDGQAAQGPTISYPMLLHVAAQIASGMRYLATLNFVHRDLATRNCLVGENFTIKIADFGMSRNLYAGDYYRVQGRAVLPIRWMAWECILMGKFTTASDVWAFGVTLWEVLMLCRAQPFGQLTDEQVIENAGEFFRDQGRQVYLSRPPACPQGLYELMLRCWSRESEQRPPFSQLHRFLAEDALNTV
Sequence of Macrophage-stimulating protein receptor (Homo sapiens) (Q04912 25-304 limits assumed): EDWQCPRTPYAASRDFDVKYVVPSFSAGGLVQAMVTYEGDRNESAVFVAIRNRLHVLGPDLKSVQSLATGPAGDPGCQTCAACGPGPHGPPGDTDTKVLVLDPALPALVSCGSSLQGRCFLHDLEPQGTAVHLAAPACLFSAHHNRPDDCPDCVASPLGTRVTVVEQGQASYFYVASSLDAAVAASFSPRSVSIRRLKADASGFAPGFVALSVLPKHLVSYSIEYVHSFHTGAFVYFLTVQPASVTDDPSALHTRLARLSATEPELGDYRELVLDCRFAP
Sequence of Macrophage-stimulating protein receptor (Homo sapiens) (Q04912 310-1400 limits assumed): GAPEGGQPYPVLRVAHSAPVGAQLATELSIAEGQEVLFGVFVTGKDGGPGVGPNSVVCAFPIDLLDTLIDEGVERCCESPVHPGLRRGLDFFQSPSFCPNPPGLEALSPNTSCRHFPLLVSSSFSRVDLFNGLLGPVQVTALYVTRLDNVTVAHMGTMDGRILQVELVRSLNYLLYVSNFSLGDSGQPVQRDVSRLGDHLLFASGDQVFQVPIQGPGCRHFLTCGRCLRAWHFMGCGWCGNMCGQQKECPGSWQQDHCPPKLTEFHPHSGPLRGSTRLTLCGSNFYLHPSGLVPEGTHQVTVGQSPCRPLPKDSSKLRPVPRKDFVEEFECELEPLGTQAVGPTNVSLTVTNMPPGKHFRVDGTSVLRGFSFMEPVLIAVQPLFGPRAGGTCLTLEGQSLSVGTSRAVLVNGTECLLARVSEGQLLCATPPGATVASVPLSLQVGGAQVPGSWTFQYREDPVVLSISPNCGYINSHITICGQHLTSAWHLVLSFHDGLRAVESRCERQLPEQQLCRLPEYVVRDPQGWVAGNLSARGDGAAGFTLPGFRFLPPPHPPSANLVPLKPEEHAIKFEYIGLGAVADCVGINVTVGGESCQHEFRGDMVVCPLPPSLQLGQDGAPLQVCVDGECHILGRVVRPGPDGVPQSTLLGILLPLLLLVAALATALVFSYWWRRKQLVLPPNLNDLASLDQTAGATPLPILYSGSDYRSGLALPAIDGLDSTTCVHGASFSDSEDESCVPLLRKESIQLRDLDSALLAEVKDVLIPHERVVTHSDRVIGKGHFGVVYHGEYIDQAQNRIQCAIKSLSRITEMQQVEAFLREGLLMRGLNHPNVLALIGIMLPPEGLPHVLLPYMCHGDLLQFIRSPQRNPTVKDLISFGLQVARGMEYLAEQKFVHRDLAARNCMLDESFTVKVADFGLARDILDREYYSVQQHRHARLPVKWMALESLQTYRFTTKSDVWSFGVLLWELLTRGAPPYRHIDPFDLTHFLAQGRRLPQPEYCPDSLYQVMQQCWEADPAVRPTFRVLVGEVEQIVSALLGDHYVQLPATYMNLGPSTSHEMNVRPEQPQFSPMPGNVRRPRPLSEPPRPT
Sequence of Dual specificity mitogen-activated protein kinase kinase 6 (Homo sapiens) (P52564 whole entry, the tested form may be a part): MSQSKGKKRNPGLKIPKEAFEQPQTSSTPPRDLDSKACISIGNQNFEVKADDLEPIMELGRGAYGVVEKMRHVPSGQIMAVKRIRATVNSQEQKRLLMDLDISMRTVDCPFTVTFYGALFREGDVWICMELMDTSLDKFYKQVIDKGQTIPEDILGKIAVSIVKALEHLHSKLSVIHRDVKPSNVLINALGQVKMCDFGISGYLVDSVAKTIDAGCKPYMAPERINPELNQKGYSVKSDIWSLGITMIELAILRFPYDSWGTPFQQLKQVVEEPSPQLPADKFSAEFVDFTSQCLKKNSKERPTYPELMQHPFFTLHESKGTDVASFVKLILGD
Sequence of Activated CDC42 kinase 1 (Homo sapiens) (Q07912 whole entry, looked up, the tested form may be a part): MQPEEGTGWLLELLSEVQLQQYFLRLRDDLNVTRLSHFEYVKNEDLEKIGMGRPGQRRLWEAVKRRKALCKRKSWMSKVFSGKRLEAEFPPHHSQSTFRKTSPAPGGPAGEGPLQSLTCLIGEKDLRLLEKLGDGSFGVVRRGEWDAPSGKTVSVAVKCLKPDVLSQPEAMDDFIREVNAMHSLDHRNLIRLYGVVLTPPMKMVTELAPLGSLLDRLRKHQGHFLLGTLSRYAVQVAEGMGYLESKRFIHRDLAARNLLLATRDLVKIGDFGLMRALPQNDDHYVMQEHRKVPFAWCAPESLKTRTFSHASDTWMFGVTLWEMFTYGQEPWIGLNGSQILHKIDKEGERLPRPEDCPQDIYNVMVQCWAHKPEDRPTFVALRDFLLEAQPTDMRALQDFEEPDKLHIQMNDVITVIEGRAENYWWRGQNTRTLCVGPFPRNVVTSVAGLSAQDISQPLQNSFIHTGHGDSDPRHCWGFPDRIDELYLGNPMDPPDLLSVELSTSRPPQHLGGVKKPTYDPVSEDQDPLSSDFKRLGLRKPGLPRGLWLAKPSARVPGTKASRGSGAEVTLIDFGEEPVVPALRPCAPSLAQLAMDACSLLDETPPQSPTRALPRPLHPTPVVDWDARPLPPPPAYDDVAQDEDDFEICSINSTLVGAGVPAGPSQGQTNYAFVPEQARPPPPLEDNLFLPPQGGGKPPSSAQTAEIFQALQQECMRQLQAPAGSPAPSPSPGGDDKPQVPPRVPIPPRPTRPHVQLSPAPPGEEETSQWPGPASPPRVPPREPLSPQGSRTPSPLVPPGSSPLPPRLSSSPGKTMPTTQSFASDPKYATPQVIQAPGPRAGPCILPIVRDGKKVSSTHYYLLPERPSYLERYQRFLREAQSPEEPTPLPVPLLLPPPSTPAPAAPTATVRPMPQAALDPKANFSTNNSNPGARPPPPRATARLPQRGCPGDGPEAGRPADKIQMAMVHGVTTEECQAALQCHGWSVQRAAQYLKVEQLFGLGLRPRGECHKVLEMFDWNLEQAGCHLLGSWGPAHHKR
Sequence of Calcium/calmodulin-dependent protein kinase type 1D (Homo sapiens) (Q8IU85 whole entry, looked up, the tested form may be a part): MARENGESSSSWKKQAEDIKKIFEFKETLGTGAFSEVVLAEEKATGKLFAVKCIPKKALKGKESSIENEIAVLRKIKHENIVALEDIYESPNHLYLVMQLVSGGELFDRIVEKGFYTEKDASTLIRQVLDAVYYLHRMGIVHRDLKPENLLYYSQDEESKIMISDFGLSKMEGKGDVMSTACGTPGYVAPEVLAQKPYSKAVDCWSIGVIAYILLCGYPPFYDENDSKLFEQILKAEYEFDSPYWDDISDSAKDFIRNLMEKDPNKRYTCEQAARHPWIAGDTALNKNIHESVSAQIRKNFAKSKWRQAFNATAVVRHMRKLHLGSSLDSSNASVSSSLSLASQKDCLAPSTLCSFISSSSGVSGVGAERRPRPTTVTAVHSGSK
Sequence of Serine/threonine-protein kinase Nek6 (Homo sapiens) (Q9HC98 whole entry): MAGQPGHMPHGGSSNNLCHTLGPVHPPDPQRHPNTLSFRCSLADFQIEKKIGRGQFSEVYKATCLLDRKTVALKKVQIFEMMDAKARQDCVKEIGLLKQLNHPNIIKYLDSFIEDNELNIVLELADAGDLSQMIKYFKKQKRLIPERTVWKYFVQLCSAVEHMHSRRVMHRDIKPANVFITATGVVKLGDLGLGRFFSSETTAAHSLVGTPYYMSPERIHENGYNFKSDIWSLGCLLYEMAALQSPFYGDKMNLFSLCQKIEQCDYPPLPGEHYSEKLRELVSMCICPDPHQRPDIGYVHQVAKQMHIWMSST

Take `CCN1CCN(Cc2ccc(Nc3ncc(F)c(-c4cc(F)c5nc(C)n(C(C)C)c5c4)n3)nc2)CC1` [ABEMACICLIB]: the inhibition in assay [1] worked out at 5%; in assay [2] it was 54.5%; in [3], 15%; in assay [4], 2.4%; in [5] it was 5%; in assay [6], 14.3%. The inhibition in assay [7] worked out at 8.7%; in [8], 10.5%; in assay [9] it was 92.5%; in assay [10] it was 12%; in assay [11] it was 30.8%; in assay [12] it was 14%. Moreover, the inhibition in assay [13] turned out to be 73%; in assay [14], 0%; in assay [15] it was 62.5%; in [16] it was 3%; in [17], 2.2%; in [18], 43%. The inhibition in [19] turned out to be 3.5%; in assay [20], 6%; in assay [21] it was 0.5%; in assay [22] it was 6%; in [23] it was 3.5%.
Regarding `CCN1CC2(C1)CN(c1ccc(Nc3ncc(F)c(-c4cnn5c4[C@H](C)CCCC5)n3)nc1)C2`, the inhibition in assay [1] stood at 5.5%; in [2], 6%; in assay [3], 11.5%; in assay [4], 5%; in assay [5], 3%; in assay [6], 0%. Further, the inhibition in assay [7] worked out at 0%; in assay [8] it was 7%; in assay [9] it was 59.5%; in [10] it was 7%; in [11], 19.5%; in assay [12] it was 13.5%. Besides, the inhibition turned out to be 14.5% in assay [13]; 0.5% in [14]; 98.5% in assay [15]; 9.5% in assay [16]; 22.5% in assay [17]; 8% in assay [18]. The inhibition came to 3.5% in assay [19]; 2.5% in assay [20]; 0% in assay [21]; 18.5% in assay [22]; 15.5% in [23].
